Measured values published in patent US11318136B2, “Identification of granins as the pathogenic factor of alzheimer's disease and compositions and methods for inhibiting granin aggregation and treating alzheimer's disease” (priority 2018, dated 2022).

How the values were obtained:
[1] = target: T1, chromogranin A (CGA) (Bos taurus, UniProt P05059); experiment: Metal-induced chromogranin A aggregation (turbidity); assay type: biochemical, bovine; conditions: 1 μM compound, pH 7.4; for Fe2+-induced chromogranin A aggregation / Cu2+-induced chromogranin A aggregation: chromogranin A 0.005 mg/ml (0.1 μM); for Zn2+-induced chromogranin A aggregation: chromogranin A 0.005 mg/ml
T1 construct: from tissue; host or cells: secretory granules of bovine adrenal medulla
T1 sequence (P05059 19-449): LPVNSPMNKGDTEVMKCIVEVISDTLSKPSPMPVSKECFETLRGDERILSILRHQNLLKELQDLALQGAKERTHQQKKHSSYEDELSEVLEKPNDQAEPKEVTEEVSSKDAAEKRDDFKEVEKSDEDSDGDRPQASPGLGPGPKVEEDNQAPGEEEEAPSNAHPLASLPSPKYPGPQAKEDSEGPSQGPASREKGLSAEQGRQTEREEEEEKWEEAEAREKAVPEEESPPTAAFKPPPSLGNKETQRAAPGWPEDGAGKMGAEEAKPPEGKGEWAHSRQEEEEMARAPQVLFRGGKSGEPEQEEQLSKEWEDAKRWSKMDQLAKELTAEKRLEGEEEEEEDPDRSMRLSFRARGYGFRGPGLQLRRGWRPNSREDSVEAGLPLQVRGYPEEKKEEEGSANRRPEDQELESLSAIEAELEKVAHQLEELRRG
Source text: (§1) Materials: The major granin proteins, chromogranin A (CGA), chromogranin B (CGB), and secretogranin II (SgII) were purified from secretory granules of bovine adrenal medulla as described (Park et al., 2002; Yoo, 1995; Yoo and Albanesi, 1990). Chelex 100 was from Bio-Rad (U.S.A), and other chemicals were of highest purity that is commercially available. Purified native chromogranin B (c), secretogranin II (d), and chromogranin A (b) are illustrated in FIG. 4. The flavonoids, stilbenoids, and the other test compounds used in the present experiments were obtained from MedChem Express (U.S.A.), Sigma-Aldrich (U.S.A.), and Santa-Cruz Biotech. (U.S.A.), and the purity of all the compounds tested was 98% or higher.
(§2) Aggregation Experiments: Prior to aggregation studies, it is necessary to remove metal ions that had interacted with granins during purification process from granins through extensive treatments with chelating agents such as Chelex 100 (Bio-Rad, U.S.A) to dissociate the granin aggregates. For metal-induced aggregation studies, Chelex 100-treated CGA, CGB, or SgII in 2 mM MOPS, pH 7.4, was titrated with concentrated metal ions such as CuCl2, FeCl2, and ZnCl2. Aggregation was monitored by measuring the turbidity change with a Beckman DU640 uv/vis spectrophotometer. All the measurements were done at 24° C.
(§3) Materials: The major granin proteins, chromogranin A (CGA), chromogranin B (CGB), and secretogranin II (SgII) were purified from secretory granules of bovine adrenal medulla as described (Park et al., 2002; Yoo, 1995; Yoo and Albanesi, 1990). Chelex 100 was from Bio-Rad, and other chemicals were of highest purity that is commercially available.
(§4) Aggregation Experiments: Prior to aggregation studies, it is necessary to remove metal ions that had interacted with granins during purification process from granins through extensive treatments with chelating agents such as Chelex 100 to dissociate the granin aggregates. For metal-induced aggregation studies, Chelex 100-treated CGA, CGB, or SgII in 2 mM MOPS, pH 7.4, was titrated with concentrated metal ions such as CuCl2, FeCl2, and ZnCl2. Aggregation was monitored by measuring the turbidity change with a Beckman spectrophotometer. All the measurements were done at 24° C.

[2] = target: T2, secretogranin II (SgII) (Bos taurus, UniProt P20616); experiment: Metal-induced secretogranin II aggregation (turbidity); assay type: biochemical, bovine; conditions: 1 μM compound, pH 7.4
T2 construct: from tissue; host or cells: secretory granules of bovine adrenal medulla
T2 sequence (P20616 31-613): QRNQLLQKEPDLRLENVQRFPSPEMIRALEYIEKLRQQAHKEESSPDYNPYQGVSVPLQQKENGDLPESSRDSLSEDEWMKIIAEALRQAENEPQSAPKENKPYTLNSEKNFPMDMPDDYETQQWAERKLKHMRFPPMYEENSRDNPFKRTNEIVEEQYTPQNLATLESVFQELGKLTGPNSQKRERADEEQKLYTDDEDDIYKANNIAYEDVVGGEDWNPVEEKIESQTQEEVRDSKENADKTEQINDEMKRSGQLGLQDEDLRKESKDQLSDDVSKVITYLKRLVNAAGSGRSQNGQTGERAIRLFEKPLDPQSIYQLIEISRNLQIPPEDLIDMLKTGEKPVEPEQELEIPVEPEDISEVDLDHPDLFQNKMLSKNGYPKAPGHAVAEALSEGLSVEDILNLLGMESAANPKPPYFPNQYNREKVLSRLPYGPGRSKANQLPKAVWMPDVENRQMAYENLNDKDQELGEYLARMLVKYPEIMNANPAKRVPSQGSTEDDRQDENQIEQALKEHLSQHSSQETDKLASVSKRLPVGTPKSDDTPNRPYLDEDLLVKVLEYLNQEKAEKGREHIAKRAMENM
Source text: as §1, §2, §3, §4

[3] = target: T3, chromogranin B (CGB) (Bos taurus, UniProt P23389); experiment: Metal-induced chromogranin B aggregation (turbidity); assay type: biochemical, bovine; conditions: 1 μM compound, pH 7.4; for Fe2+-induced chromogranin B aggregation / Cu2+-induced chromogranin B aggregation: chromogranin B 0.005 mg/ml (0.06 μM)
T3 construct: from tissue; host or cells: secretory granules of bovine adrenal medulla
T3 sequence (P23389 21-646): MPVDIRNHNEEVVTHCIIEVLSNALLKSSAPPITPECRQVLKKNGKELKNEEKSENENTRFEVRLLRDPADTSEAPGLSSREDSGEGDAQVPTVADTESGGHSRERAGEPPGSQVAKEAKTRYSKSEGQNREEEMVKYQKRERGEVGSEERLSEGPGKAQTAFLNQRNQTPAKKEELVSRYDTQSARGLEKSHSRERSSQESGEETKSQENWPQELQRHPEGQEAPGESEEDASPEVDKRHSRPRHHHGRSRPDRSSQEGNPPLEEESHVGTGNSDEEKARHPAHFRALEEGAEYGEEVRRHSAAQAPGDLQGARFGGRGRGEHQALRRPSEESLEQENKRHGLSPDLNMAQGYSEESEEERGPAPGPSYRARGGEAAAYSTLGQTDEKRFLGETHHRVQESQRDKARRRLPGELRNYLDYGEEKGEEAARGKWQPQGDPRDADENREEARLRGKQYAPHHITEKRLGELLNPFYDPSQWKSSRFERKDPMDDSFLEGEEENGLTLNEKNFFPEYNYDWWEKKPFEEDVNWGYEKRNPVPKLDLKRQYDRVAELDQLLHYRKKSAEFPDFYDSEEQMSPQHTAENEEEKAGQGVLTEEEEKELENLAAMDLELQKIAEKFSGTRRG
Source text: as §1, §2, §3, §4

[4] = system: PC12 cells; experiment: MTT cell toxicity assay, granin plus Cu2+ toxicity; assay type: cell-based; conditions: 0.1 μM chromogranin A, 0.06 μM chromogranin B, 0.07 μM secretogranin II, 20 μM Cu2+, 1 μM compound
Source text: MTT cell toxicity assay: Cell toxicity assays were done using MTT cell proliferation assay kits from Invitrogen (U.S.A.) and 50,000 PC12 cells/well as described (Cheruvara et al., 2015; Shearman et al., 1994). The assays are designed to detect the level of MTT dye reduction by cells, and the resulting color changes at 570 nm are used as an indicator of cell viability (health). The healthier the cells the higher the color changes.

[5] = target: T4, chromogranin B (Bos taurus, UniProt P23389); experiment: Dynamic light scattering, hydrodynamic state of chromogranin B; assay type: biochemical, bovine; conditions: chromogranin B 0.5 mg/ml (6 μM); 0.2 mM compound; 0.2 mM Fe2+; pH 7.4
T4 construct: from tissue; host or cells: secretory granules of bovine adrenal medulla
T4 sequence (P23389 21-646): T3 sequence (P23389 21-646)
Procedure: Molecular dynamic light scattering: To determine whether granins are in a monomer-to-oligomer state or in high molecular weight aggregate states in different solution conditions, dynamic light scattering experiments of granins were carried out with a DynaPro NanoStar of Wyatt Technology (Santa Barbara, Calif.) at 24° C., and the results were analyzed by a program (Dynamics 7.5.0) provided by the company.

[6] = secretogranin II 0.005 mg/ml (0.07 μM)

O=c1c(O)c(-c2ccc(O)cc2)oc2cc(O)cc(O)c12 [kaempferol]
Fe2+-induced chromogranin A aggregation [1]: completely suppressed
Cu2+-induced secretogranin II aggregation [2, 6]: mostly suppressed

O=c1cc(-c2ccc(O)cc2)oc2cc(O)cc(O)c12 [apigenin]
Cu2+-induced chromogranin A aggregation [1]: completely suppressed
Zn2+-induced chromogranin B aggregation ([3]; chromogranin B 0.005 mg/ml): mostly suppressed

O=c1c(O)c(-c2ccc(O)cc2O)oc2cc(O)cc(O)c12 [morin]
Fe2+-induced chromogranin A aggregation [1]: completely suppressed
Zn2+-induced chromogranin A aggregation [1]: mostly suppressed

O=c1cc(-c2ccc(O)c(O)c2)oc2cc(O)cc(O)c12 [luteolin]
Fe2+-induced chromogranin B aggregation [3]: mostly inhibited
Fe2+-induced secretogranin II aggregation [2, 6]: mostly inhibited
granin-induced toxicity (cell toxicity, MTT) [4]: virtually stopped

COc1ccc(-c2cc(=O)c3c(OC)c(OC)c(OC)c(OC)c3o2)cc1 [tangeretin]
Cu2+-induced chromogranin A aggregation [1]: mostly suppressed
Fe2+-induced chromogranin B aggregation [3]: completely suppressed

O=c1c(O)c(-c2ccc(O)c(O)c2)oc2cc(O)ccc12 [fisetin]
Fe2+-induced chromogranin A aggregation [1]: completely suppressed
Fe2+-induced secretogranin II aggregation [2, 6]: completely suppressed

epigallocatechin 3-gallate [EGCG]
Cu2+-induced secretogranin II aggregation [2, 6]: mostly suppressed
Fe2+-induced secretogranin II aggregation [2, 6]: completely suppressed

COc1cc2ncnc(Nc3cccc(Cl)c3)c2cc1OC [tyrphostin AG1478]
Fe2+-induced chromogranin A aggregation [1]: significantly suppressed
Fe2+-induced secretogranin II aggregation [2, 6]: significantly suppressed

O=c1c(O)c(-c2ccc(O)c(O)c2)oc2cc(O)cc(O)c12 [quercetin]
Cu2+-induced chromogranin B aggregation [3]: completely suppressed
Fe2+-induced secretogranin II aggregation [2, 6]: completely suppressed

COc1cc(OC)c2c(=O)cc(-c3ccccc3)oc2c1 [5,7-dimethoxyflavone]
Fe2+-induced chromogranin A aggregation [1]: completely suppressed
Zn2+-induced chromogranin A aggregation [1]: mostly suppressed

O=c1cc(-c2ccccc2)oc2cc(O)c(O)c(O)c12 [baicalein]
Cu2+-induced chromogranin B aggregation [3]: mostly suppressed
Fe2+-induced secretogranin II aggregation ([2]; secretogranin II 0.01 mg/ml (0.14 μM)): completely suppressed
chromogranin B in large aggregate state [5]: 5.3%
chromogranin B remaining in low molecular weight oligomer state [5]: 94.7%

Oc1ccc(C=Cc2cc(O)cc(O)c2)cc1 [resveratrol]
Fe2+-induced chromogranin B aggregation [3]: mostly suppressed
Zn2+-induced secretogranin II aggregation [2, 6]: significantly suppressed

Nc1ncnc2c1ncn2[C@@H]1O[C@H](CO)C[C@H]1O [cordycepin]
Cu2+-induced chromogranin A aggregation [1]: mostly suppressed
Fe2+-induced secretogranin II aggregation [2, 6]: significantly suppressed

O=c1c(O)c(-c2cc(O)c(O)c(O)c2)oc2cc(O)cc(O)c12 [myricetin]
Fe2+-induced chromogranin A aggregation [1]: completely suppressed
Fe2+-induced chromogranin B aggregation [3]: completely suppressed
